“And” between values parts separate entries of the source, which are not always exact repeats. Equal values may be shown once.
What was measured:
[1] = Saturation concentration of NK1 receptor antagonists in olive oil; format: physicochemical; conditions: 25° C.
Description: Each of said mixtures was continuously and gently stirred for 10 minutes at ambient temperature (25° C.) and then maintained at rest for 60 minutes. The saturation concentration was considered to be that which was immediately lower in the aforementioned series than a concentration where deposition was observed, but in which no deposition of the active ingredient was observed.

[2] = Tissue concentration of aprepitant by HPLC after oral or inhaled administration to rabbits; format: in vivo, New Zealand albino rabbits; conditions: for concentration at 7 days: New Zealand White (albino), rabbit
Description: Herein, New Zealand albino rabbits (New Zealand White Rabbits) with an initial average weight of approximately 3 kg were used. The rabbits were fed ad libitum and were monitored daily to check that signs of toxicity had not appeared. […] This mixture was administered as an aerosol to the airways of a group of 3 of said rabbits (Group 5) in a dose of 0.05 mg/kg body weight per day, to another group of three rabbits (Group 6) in a dose of 0.1 mg/kg body weight per day, to another group of three rabbits (group 7) in a dose of 0.2 mg/kg body weight per day and to another group of three rabbits (Group 8) in a dose of 0.4 mg/kg body weight per day. […] After seven days of treatment all animals were euthanized and necropsied. […] Samples were taken at the peripheral level of the lung parenchyma, just below the pleural surface. Tissue samples were also taken from the nasal cavity, pharynx, larynx and bronchi. […] The average is the arithmetic average calculated for each row or column of each table. The SD is the standard deviation, calculated for each row or column of each table.

[3] = Group 1, oral 10 mg/kg per day, seven days, individual cases, 10 mg/kg/day
[4] = Group 2, oral 40 mg/kg per day, seven days, individual cases, 40 mg/kg/day
[5] = Group 3, oral 80 mg/kg per day, seven days, individual cases, 80 mg/kg/day
[6] = Group 4, oral 100 mg/kg per day, seven days, individual cases, 100 mg/kg/day
[7] = Group 5, inhalation (aerosol, olive oil) 0.05 mg/kg per day, seven days, individual cases, 0.05 mg/kg/day
[8] = Group 6, inhalation (aerosol, olive oil) 0.1 mg/kg per day, seven days, individual cases, 0.1 mg/kg/day
[9] = Group 7, inhalation (aerosol, olive oil) 0.2 mg/kg per day, seven days, individual cases, 0.2 mg/kg/day
[10] = Group 8, inhalation (aerosol, olive oil) 0.4 mg/kg per day, seven days, individual cases, 0.4 mg/kg/day

Saturation concentration [1]: 60 nM
concentration at 7 days ([2]; in vivo, 0.05 mg/kg/day, Lung concentration of aprepitant, Average ± SD of the five lobes per case): 1400 ng/g
concentration at 7 days ([2]; in vivo, 0.1 mg/kg/day, Lung concentration of aprepitant, Average ± SD of the five lobes per case): 2800 ng/g
concentration at 7 days ([2]; in vivo, 0.2 mg/kg/day, Lung concentration of aprepitant, Average ± SD of the five lobes per case): 6020 ng/g
concentration at 7 days ([2]; in vivo, po, 100 mg/kg/day, Lung concentration of aprepitant, Average ± SD of the five lobes per case): 5240 ng/g
concentration at 7 days ([2]; lung, left inferior lobe, inhaled, 0.05 mg/kg/day, Lung concentration of aprepitant LIPI (left inferior lobe), Group 5, inhalation (aerosol, olive oil) 0.05 mg/kg per day, seven days, individual cases): 1500 ng/g
concentration at 7 days ([2]; lung, left inferior lobe, inhaled, 0.05 mg/kg/day, Lung concentration of aprepitant LIPI, Average ± SD of cases, Group 5, inhalation (aerosol, olive oil) 0.05 mg/kg per day, seven days): 1400 ng/g
concentration at 7 days ([2]; lung, left inferior lobe, inhaled, 0.1 mg/kg/day, Lung concentration of aprepitant LIPI (left inferior lobe), Group 6, inhalation (aerosol, olive oil) 0.1 mg/kg per day, seven days, individual cases): 2800 ng/g
concentration at 7 days ([2]; lung, left inferior lobe, inhaled, 0.1 mg/kg/day, Lung concentration of aprepitant LIPI, Average ± SD of cases, Group 6, inhalation (aerosol, olive oil) 0.1 mg/kg per day, seven days): 2800 ng/g
concentration at 7 days ([2]; lung, left inferior lobe, inhaled, 0.2 mg/kg/day, Lung concentration of aprepitant LIPI (left inferior lobe), Group 7, inhalation (aerosol, olive oil) 0.2 mg/kg per day, seven days, individual cases): 5900 ng/g
concentration at 7 days ([2]; lung, left inferior lobe, po, 100 mg/kg/day, Lung concentration of aprepitant LIPI (left inferior lobe), Group 4, oral 100 mg/kg per day, seven days, individual cases): 6100 ng/g
concentration at 7 days ([2]; lung, left inferior lobe, po, 100 mg/kg/day, Lung concentration of aprepitant LIPI, Average ± SD of cases, Group 4, oral 100 mg/kg per day, seven days): 5300 ng/g
concentration at 7 days ([2]; lung, left superior lobe, inhaled, 0.05 mg/kg/day, Lung concentration of aprepitant LSPI (left superior lobe), Group 5, inhalation (aerosol, olive oil) 0.05 mg/kg per day, seven days, individual cases): 1400 ng/g
concentration at 7 days ([2]; lung, left superior lobe, inhaled, 0.05 mg/kg/day, Lung concentration of aprepitant LSPI, Average ± SD of cases, Group 5, inhalation (aerosol, olive oil) 0.05 mg/kg per day, seven days): 1400 ng/g
concentration at 7 days ([2]; lung, left superior lobe, inhaled, 0.1 mg/kg/day, Lung concentration of aprepitant LSPI (left superior lobe), Group 6, inhalation (aerosol, olive oil) 0.1 mg/kg per day, seven days, individual cases): 2800 ng/g
concentration at 7 days ([2]; lung, left superior lobe, inhaled, 0.1 mg/kg/day, Lung concentration of aprepitant LSPI, Average ± SD of cases, Group 6, inhalation (aerosol, olive oil) 0.1 mg/kg per day, seven days): 2700 ng/g
concentration at 7 days ([2]; lung, left superior lobe, inhaled, 0.2 mg/kg/day, Lung concentration of aprepitant LSPI (left superior lobe), Group 7, inhalation (aerosol, olive oil) 0.2 mg/kg per day, seven days, individual cases): 6100 ng/g
concentration at 7 days ([2]; lung, left superior lobe, po, 100 mg/kg/day, Lung concentration of aprepitant LSPI (left superior lobe), Group 4, oral 100 mg/kg per day, seven days, individual cases): 4300 ng/g
concentration at 7 days ([2]; lung, left superior lobe, po, 100 mg/kg/day, Lung concentration of aprepitant LSPI, Average ± SD of cases, Group 4, oral 100 mg/kg per day, seven days): 4600 ng/g
concentration at 7 days ([2]; lung, right inferior lobe, inhaled, 0.05 mg/kg/day, Lung concentration of aprepitant LIPD (right inferior lobe), Group 5, inhalation (aerosol, olive oil) 0.05 mg/kg per day, seven days, individual cases): 1500 ng/g
concentration at 7 days ([2]; lung, right inferior lobe, inhaled, 0.05 mg/kg/day, Lung concentration of aprepitant LIPD, Average ± SD of cases, Group 5, inhalation (aerosol, olive oil) 0.05 mg/kg per day, seven days): 1500 ng/g
concentration at 7 days ([2]; lung, right inferior lobe, inhaled, 0.1 mg/kg/day, Lung concentration of aprepitant LIPD (right inferior lobe), Group 6, inhalation (aerosol, olive oil) 0.1 mg/kg per day, seven days, individual cases): 2800 ng/g
concentration at 7 days ([2]; lung, right inferior lobe, inhaled, 0.1 mg/kg/day, Lung concentration of aprepitant LIPD, Average ± SD of cases, Group 6, inhalation (aerosol, olive oil) 0.1 mg/kg per day, seven days): 2800 ng/g
concentration at 7 days ([2]; lung, right inferior lobe, inhaled, 0.2 mg/kg/day, Lung concentration of aprepitant LIPD (right inferior lobe), Group 7, inhalation (aerosol, olive oil) 0.2 mg/kg per day, seven days, individual cases): 6000 ng/g
concentration at 7 days ([2]; lung, right inferior lobe, inhaled, 0.2 mg/kg/day, Lung concentration of aprepitant LIPD, Average ± SD of cases, Group 7, inhalation (aerosol, olive oil) 0.2 mg/kg per day, seven days): 6000 ng/g
Structure (SMILES): C[C@@H](OC1OCCN(Cc2nc(=O)[nH][nH]2)C1c1ccc(F)cc1)c1cc(C(F)(F)F)cc(C(F)(F)F)c1 (stereo in doubt) [Aprepitant, 5-([(2R,3S)-2-((R)-1-[3,5-bis(trifluoromethyl)phenyl]ethoxy)-3-(4-fluorophenyl)morpholino]methyl)-1H-1,2,4-triazol-3(2H)-one]
Lung concentration of aprepitant LIPD (right inferior lobe) [2, 3]: 0.9 micrograms of aprepitant per gram of lung tissue and 1.0 micrograms of aprepitant per gram of lung tissue
Lung concentration of aprepitant LIPI (left inferior lobe) [2, 3]: 1.4 micrograms of aprepitant per gram of lung tissue and 1.1 micrograms of aprepitant per gram of lung tissue
Lung concentration of aprepitant LMPD (right middle lobe) [2, 3]: 1.4 micrograms of aprepitant per gram of lung tissue and 1.5 micrograms of aprepitant per gram of lung tissue
Lung concentration of aprepitant LSPD (right superior lobe) [2, 3]: 1.1 micrograms of aprepitant per gram of lung tissue and 0.4 micrograms of aprepitant per gram of lung tissue and 1.2 micrograms of aprepitant per gram of lung tissue
Lung concentration of aprepitant LSPI (left superior lobe) [2, 3]: 1.0 micrograms of aprepitant per gram of lung tissue and 0.5 micrograms of aprepitant per gram of lung tissue
Lung concentration of aprepitant LIPD (right inferior lobe) [2, 4]: 3.1 micrograms of aprepitant per gram of lung tissue and 4.2 micrograms of aprepitant per gram of lung tissue
Lung concentration of aprepitant LIPI (left inferior lobe) [2, 4]: 2.8 micrograms of aprepitant per gram of lung tissue and 4.0 micrograms of aprepitant per gram of lung tissue
Lung concentration of aprepitant LMPD (right middle lobe) [2, 4]: 2.9 micrograms of aprepitant per gram of lung tissue and 5.1 micrograms of aprepitant per gram of lung tissue
Lung concentration of aprepitant LSPD (right superior lobe) [2, 4]: 4.1 micrograms of aprepitant per gram of lung tissue and 3.3 micrograms of aprepitant per gram of lung tissue
Lung concentration of aprepitant LSPI (left superior lobe) [2, 4]: 4.2 micrograms of aprepitant per gram of lung tissue and 3.6 micrograms of aprepitant per gram of lung tissue
Lung concentration of aprepitant LIPD (right inferior lobe) [2, 5]: 6.3 micrograms of aprepitant per gram of lung tissue and 5.3 micrograms of aprepitant per gram of lung tissue
Lung concentration of aprepitant LIPI (left inferior lobe) [2, 5]: 3.4 micrograms of aprepitant per gram of lung tissue and 4.3 micrograms of aprepitant per gram of lung tissue
Lung concentration of aprepitant LMPD (right middle lobe) [2, 5]: 5.5 micrograms of aprepitant per gram of lung tissue and 5.3 micrograms of aprepitant per gram of lung tissue
Lung concentration of aprepitant LSPD (right superior lobe) [2, 5]: 4.2 micrograms of aprepitant per gram of lung tissue and 3.3 micrograms of aprepitant per gram of lung tissue
Lung concentration of aprepitant LSPI (left superior lobe) [2, 5]: 5.1 micrograms of aprepitant per gram of lung tissue
Lung concentration of aprepitant LIPD (right inferior lobe) [2, 6]: 5.9 micrograms of aprepitant per gram of lung tissue and 6.1 micrograms of aprepitant per gram of lung tissue
Lung concentration of aprepitant LIPI (left inferior lobe) [2, 6]: 4.8 micrograms of aprepitant per gram of lung tissue and 5.1 micrograms of aprepitant per gram of lung tissue
Lung concentration of aprepitant LMPD (right middle lobe) [2, 6]: 5.1 micrograms of aprepitant per gram of lung tissue and 5.4 micrograms of aprepitant per gram of lung tissue
Lung concentration of aprepitant LSPD (right superior lobe) [2, 6]: 4.8 micrograms of aprepitant per gram of lung tissue and 4.3 micrograms of aprepitant per gram of lung tissue
Lung concentration of aprepitant LSPI (left superior lobe) [2, 6]: 5.2 micrograms of aprepitant per gram of lung tissue and 4.5 micrograms of aprepitant per gram of lung tissue
Lung concentration of aprepitant LIPD (right inferior lobe) [2, 7]: 1.5 micrograms of aprepitant per gram of lung tissue and 1.6 micrograms of aprepitant per gram of lung tissue
Lung concentration of aprepitant LIPI (left inferior lobe) [2, 7]: 1.5 micrograms of aprepitant per gram of lung tissue and 1.4 micrograms of aprepitant per gram of lung tissue
Lung concentration of aprepitant LMPD (right middle lobe) [2, 7]: 1.6 micrograms of aprepitant per gram of lung tissue and 1.5 micrograms of aprepitant per gram of lung tissue
Lung concentration of aprepitant LSPD (right superior lobe) [2, 7]: 1.4 micrograms of aprepitant per gram of lung tissue and 1.5 micrograms of aprepitant per gram of lung tissue
Lung concentration of aprepitant LSPI (left superior lobe) [2, 7]: 1.5 micrograms of aprepitant per gram of lung tissue
Lung concentration of aprepitant LMPD (right middle lobe) ([2]; Group 6, inhalation (aerosol, olive oil) 0.1 mg/kg per day, seven days, individual cases): 2.9 micrograms of aprepitant per gram of lung tissue
Lung concentration of aprepitant LIPD (right inferior lobe) [2, 8]: 2.9 micrograms of aprepitant per gram of lung tissue and 2.8 micrograms of aprepitant per gram of lung tissue
Lung concentration of aprepitant LIPI (left inferior lobe) [2, 8]: 2.8 micrograms of aprepitant per gram of lung tissue and 2.9 micrograms of aprepitant per gram of lung tissue
Lung concentration of aprepitant LSPD (right superior lobe) [2, 8]: 2.8 micrograms of aprepitant per gram of lung tissue and 2.9 micrograms of aprepitant per gram of lung tissue
Lung concentration of aprepitant LSPI (left superior lobe) [2, 8]: 2.7 micrograms of aprepitant per gram of lung tissue and 2.8 micrograms of aprepitant per gram of lung tissue
Lung concentration of aprepitant LIPD (right inferior lobe) ([2]; Group 7, inhalation (aerosol, olive oil) 0.2 mg/kg per day, seven days, individual cases): 6.0 micrograms of aprepitant per gram of lung tissue
Lung concentration of aprepitant LIPI (left inferior lobe) [2, 9]: 6.0 micrograms of aprepitant per gram of lung tissue and 5.9 micrograms of aprepitant per gram of lung tissue
Lung concentration of aprepitant LMPD (right middle lobe) [2, 9]: 6.0 micrograms of aprepitant per gram of lung tissue and 6.1 micrograms of aprepitant per gram of lung tissue
Lung concentration of aprepitant LSPD (right superior lobe) [2, 9]: 5.9 micrograms of aprepitant per gram of lung tissue and 6.0 micrograms of aprepitant per gram of lung tissue
Lung concentration of aprepitant LSPI (left superior lobe) [2, 9]: 6.1 micrograms of aprepitant per gram of lung tissue and 5.9 micrograms of aprepitant per gram of lung tissue
Lung concentration of aprepitant LIPD (right inferior lobe) [2, 10]: 10.4 micrograms of aprepitant per gram of lung tissue and 10.0 micrograms of aprepitant per gram of lung tissue
Lung concentration of aprepitant LIPI (left inferior lobe) [2, 10]: 10.1 micrograms of aprepitant per gram of lung tissue and 9.9 micrograms of aprepitant per gram of lung tissue
Lung concentration of aprepitant LMPD (right middle lobe) [2, 10]: 10.1 micrograms of aprepitant per gram of lung tissue and 9.9 micrograms of aprepitant per gram of lung tissue
Lung concentration of aprepitant LSPD (right superior lobe) [2, 10]: 10.0 micrograms of aprepitant per gram of lung tissue and 9.8 micrograms of aprepitant per gram of lung tissue
Lung concentration of aprepitant LSPI (left superior lobe) [2, 10]: 10.2 micrograms of aprepitant per gram of lung tissue and 10.0 micrograms of aprepitant per gram of lung tissue

Reference: patent publication US20170290774A1, “NEUROKININ-1 RECEPTOR ANTAGONIST COMPOSITION FOR TREATMENT OF DISEASES AND CONDITIONS OF THE RESPIRATORY TRACT” (PLUS VITECH, S.L., priority 2014, published 2017)
